Test results as given in patent US9867786B2, “Stabilized compositions containing alkaline labile drugs” (AUXILIUM US HOLDINGS, LLC, priority 2006, dated 2018).

Test: Determination of drug stability: testosterone impurities/degradants in hot-melt extruded composition by HPLC
Format: physicochemical
Experimental: Testosterone and any other ingredients were added to the wet granulated excipient mixture prepared according to Example 1. The blend was extruded as a monolayer film using a having a barrel temperature of 135° C. The moisture content of the blend prior to extrusion was 3.1%. The HME composition is then analyzed by HPLC according to Example 4 to determine the amount of degradants present.
Twenty doses were sampled from a HME composition at the beginning, middle and end of the extrusion run a formulation. Composites of 10 doses were analyzed in duplicate for impurities by HPLC at each time point. The weight percent for each degradant was determined. Specific degradants analyzed include: 6B-Hydroxy-testosterone, 4-Androsten-16-alpha-ol-3,17-dione, Epi-Testosterone and unidentified degradants. The HPLC method employed will vary according to the drug included in the HME composition. Such methods are found in HPLC in the Pharmaceutical Industry (edited by Godwin W. Fong, Stanley K. Lam, New York: M. Dekker, 1991) or HPLC Methods for Pharmaceutical Analysis (by George Lunn and Norman R. Schmuff. New York: John Wiley & Sons, 1997), the disclosures of which are hereby incorporated by reference.

[1] = HME composition extruded at 135 ° C.
[2] = HME composition extruded at 145 ° C.
[3] = HME composition, granulation fluid Aqueous Ethanol
[4] = HME composition, granulation fluid Water

With `C[C@]12CC[C@H]3[C@@H](CCC4=CC(=O)CC[C@@]43C)[C@@H]1CC[C@@H]2O` [testosterone] the “Total Unknown Impurities (%)” value (HME composition (PolyOx, Poloxamer wet granulated with water, Carbopol) extruded at 135 ° C.) was 0.1%, the “Total Unknown Impurities (%)” value (HME composition (PolyOx, Poloxamer wet granulated with water, Carbopol) extruded at 145 ° C.) was 0.4% and the “4-Androsten-16-alpha-ol-3,17-dione (%)” value [1] was “ND (ND denotes below the limit of quantitation using the HPLC method detailed herein. In this case, ND means less than 0.1% by wt.)”. The “6B-Hydroxy-testosterone (%)” value [1] was “ND (ND denotes below the limit of quantitation using the HPLC method detailed herein. In this case, ND means less than 0.1% by wt.)”, the “Epi-Testosterone (%)” value [1] was “ND (ND denotes below the limit of quantitation using the HPLC method detailed herein. In this case, ND means less than 0.1% by wt.)” and the “4-Androsten-16-alpha-ol-3,17-dione (%)” value [2] was “ND (ND denotes below the limit of quantitation using the HPLC method detailed herein. In this case, ND means less than 0.1% by wt.)”. For the same molecule, the “6B-Hydroxy-testosterone (%)” value [2] was 0.15%, the “Epi-Testosterone (%)” value [2] was “ND (ND denotes below the limit of quantitation using the HPLC method detailed herein. In this case, ND means less than 0.1% by wt.)” and the “4-Androsten-16-alpha-ol-3,17-dione (%)” value [3] was 0.00-0.20%. The “6B-Hydroxy-testosterone (%)” value [3] was 0.00-0.20%, the “Epi-Testosterone (%)” value [3] was 0.00-0.50% and the “Total Unknown Impurities (%)” value (HME composition, granulation fluid Aqueous Ethanol (50:50 water/ethanol)) was 0.00-0.75%. The “4-Androsten-16-alpha-ol-3,17-dione (%)” value [4] was 0.10-0.50%, the “6B-Hydroxy-testosterone (%)” value [4] was 0.10-0.50% and the “Epi-Testosterone (%)” value [4] was 0.00-0.50%. The “Total Unknown Impurities (%)” value [4] was 0.50-1.00%.
